Data reported in patent US20250042894A1, “PROTEIN TYROSINE PHOSPHATASE INHIBITORS AND METHODS OF USE THEREOF” (Calico Life Sciences LLC, priority 2021, published 2025).
Where two headings read alike, the source gives them in different places.

Experiments:
[1] = tested on: IFNγ-induced STAT1 phosphorylation (pSTAT1) in B16F10 cells; assay: B16F10 Phospho-STAT1 HTRF proximal pharmacodynamic (PD) assay; format: cell-based, murine; settings: for EC50: B16-F10
Protocol: Example 45: B16F10 (Murine Melanoma Cells) Phospho-STAT1 HTRF Proximal Pharmacodynamic (PD) Assay
B16F10 cells were grown and maintained in high glucose DMEM (Gibco, Catalog #11965-092, Dun Laoghaire Co Dublin) supplemented with 10% fetal bovine serum (Gibco, Catalog #10082-139, Dun Laoghaire Co Dublin). The cells were pelleted and resuspended in high glucose DMEM without phenol red (Gibco, Catalog #11054-020, Dun Laoghaire Co Dublin), supplemented with 10% fetal bovine serum and plated in a 384 well Corning plate (product #3765, Corning, NY) at 11,000 cells per well in a volume of 20 μL. The cells were dosed with the compounds of interest using an Echo Liquid Handler (Beckman Coulter, Brea, CA) at 50 μM top dose with 3-fold dilutions down to 0.002679 μM for a 10-point dose response. The plate was incubated for 3 hours at 37° C. and subsequently treated with recombinant mouse IFNγ (R&D Systems, Catalog #485-MI, Minneapolis, MN; 100 nM final concentration) for 10 minutes at 37° C. to induce STAT1 phosphorylation followed by 3.3 μM staurosporine treatment for 1 hour at 37° C. to terminate phosphorylation. Media was then aspirated and 20 μL of 1× lysis buffer/blocking reagent (Cisbio Phospho-STAT1 kit, part #63ADK026PEH, Bedford, MA) was added. The plate was placed on a plate shaker for 30 minutes at room temperature, sealed, and stored at −80° C. until needed. To thaw, the plate was placed on shaker at room temperature until completely thawed while the antibody master mix was made (1:40 Phospho-STAT1 Eu Cryptate antibody, 1:40 Phospho-STAT1 d2 antibody, with the detection buffer; Cisbio Phospho-STAT1 kit, part #63ADK026PEH, Bedford, MA). The antibody master mix was then dispensed at 4 μL per well into a 384 ProxiPlate Plus (PerkinElmer, part #6008289, Waltham, MA) and 16 μL of lysate was added from the Corning plate to the Proxiplate using a VIAFLO 384 (INTEGRA). The plate was incubated for 3 hours at room temperature and read on an EnVision® (Perkin Elmer) plate reader with laser excitation at 335 nm and emission at 665 nm. Dotmatics Studies (Bishop's Stortford, UK) was utilized to generate all dose-response curves and calculate EC50s and are shown in Table 2.

[2] = biological target: T1, His tagged full-length PTPN1 protein (Homo sapiens, UniProt P18031); assay: Mobility Shift Assay (MSA) for PTPN1 inhibitors; format: biochemical; settings: enzyme 0.5 nM, substrate 2 μM, 10 minutes preincubation at room temperature
T1 construct: His; made in house
T1 sequence (P18031 1-435): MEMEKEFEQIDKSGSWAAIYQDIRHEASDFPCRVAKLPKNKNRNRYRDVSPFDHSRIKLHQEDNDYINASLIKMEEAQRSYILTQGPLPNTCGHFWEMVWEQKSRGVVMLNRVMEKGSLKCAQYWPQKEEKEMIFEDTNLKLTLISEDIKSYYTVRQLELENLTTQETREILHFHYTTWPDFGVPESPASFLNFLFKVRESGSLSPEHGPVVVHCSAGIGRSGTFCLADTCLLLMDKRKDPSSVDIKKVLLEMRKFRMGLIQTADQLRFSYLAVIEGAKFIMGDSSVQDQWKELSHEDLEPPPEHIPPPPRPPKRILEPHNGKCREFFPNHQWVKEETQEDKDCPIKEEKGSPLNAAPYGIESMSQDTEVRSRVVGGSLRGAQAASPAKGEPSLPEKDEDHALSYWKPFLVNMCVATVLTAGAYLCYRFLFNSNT
Protocol: Example 44: Mobility Shift Assay (MSA) Used to Determine Potency of PTPN1 Inhibitors
Compound activity was determined using in house His tagged full-length PTPN1 protein (SEQ ID NO: 3) in an in vitro enzymatic reaction. The enzymatic assay used to determine activity is a mobility shift assay using a LabChip EZ Reader by Caliper Life Sciences. The enzymatic reaction was carried out in assay buffer (50 mM HEPES pH 7.5, 1 mM EGTA, 10 mM EDTA, 0.010% Tween® 20, and 2 mM DTT). The compounds were dispensed on a white 384 well ProxiPlate™ (PerkinElmer Cat #6008289) plate using a Labcyte Echo® liquid handler at varying concentrations (12 point, 1:3 dilution). The enzyme (at 0.5 nM) was incubated with compound for 10 minutes at room temperature. Thereafter, the substrate (phosphorylated insulin receptor probe sequence: ((OG488)-(NH—CH2—CH2—O—CH2—CH2—O—CH2—CO)-T-R-D-I—(PY)-E-T-D-Y—Y—R—K—K—NH2) (SEQ ID NO: 2) was added at 2 μM to the plates and incubated for another 10 minutes at room temperature. Finally, a quench solution (water and 4-bromo-3-(2-oxo-2-propoxyethoxy)-5-(3-{[1-(phenylmethanesulfonyl)piperidin-4-yl]amino}phenyl)thiophene-2-carboxylic acid) was added to the plates, which were then run on the EZ Reader (excitation 488 nm, emission 530 nm) to measure % conversion (the amount of phosphorylated substrate which was de-phosphorylated by PTPN1). […] The % inhibition was then used to calculate the IC50 values.

[3] = biological target: T2, His tagged PTPN2 (TC45) protein (Homo sapiens, UniProt P17706); assay: Mobility Shift Assay (MSA) for PTPN2 inhibitors; format: biochemical; settings: for IC50: enzyme 0.5 nM, substrate 2 μM, 10 minutes preincubation at room temperature
T2 construct: His; made in house
T2 sequence (P17706 1-387 isoform P17706-2): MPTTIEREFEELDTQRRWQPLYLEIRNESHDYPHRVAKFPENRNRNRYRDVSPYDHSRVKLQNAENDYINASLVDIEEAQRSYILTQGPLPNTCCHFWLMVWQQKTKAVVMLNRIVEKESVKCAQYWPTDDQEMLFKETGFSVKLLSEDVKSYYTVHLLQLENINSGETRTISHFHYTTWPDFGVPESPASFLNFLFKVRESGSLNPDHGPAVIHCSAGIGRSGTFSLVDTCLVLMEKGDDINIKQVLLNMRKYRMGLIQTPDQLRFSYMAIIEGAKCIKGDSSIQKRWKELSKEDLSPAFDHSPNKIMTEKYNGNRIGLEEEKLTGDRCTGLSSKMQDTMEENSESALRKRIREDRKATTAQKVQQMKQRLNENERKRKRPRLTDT
Protocol: Example 43: Mobility Shift Assay (MSA) Used to Determine Potency of PTPN2 Inhibitors
Compound activity was determined using in house His tagged PTPN2 (TC45) protein (SEQ ID NO: 1) in an in vitro enzymatic reaction. The enzymatic assay used to determine activity was a mobility shift assay using a LabChip EZ Reader by Caliper Life Sciences. The enzymatic reaction was carried out in assay buffer (50 mM HEPES pH 7.5, 1 mM EGTA, 10 mM EDTA, 0.01% Tween® 20, and 2 mM DTT). The compounds were dispensed on a white 384 well ProxiPlate™ (PerkinElmer Catalog #6008289) plate using the Labcyte Echo at varying concentrations (12 point, 1:3 dilution). The enzyme (at 0.5 nM) was incubated with compound for 10 minutes at room temperature. Thereafter, the substrate (phosphorylated insulin receptor probe sequence: ((OG488)-(NH—CH2—CH2—O—CH2—CH2—O—CH2—CO)-T-R-D-I—(PY)-E-T-D-Y—Y—R—K—K—NH2) (SEQ ID NO: 2) was added at 2 μM to the plates and incubated for another 10 minutes at room temperature. Finally, a quench solution (water and 4-bromo-3-(2-oxo-2-propoxyethoxy)-5-(3-{[1-(phenylmethanesulfonyl)piperidin-4-yl]amino}phenyl)thiophene-2-carboxylic acid) was added to the plates, which were then run on the EZ Reader (excitation 488 nm, emission 530 nm) to measure % conversion (the amount of phosphorylated substrate which was de-phosphorylated by PTPN2). […] The % inhibition was then used to calculate the IC50 values.

[4] = Table 2, 3 hours compound, then mouse IFNγ 100 nM 10 minutes, top dose 50 μM, read-out: B16F10 IFNγ Induced pSTAT1 EC50

Compound | EC50 [1, 4] | IC50 [2] | IC50 [3] | EC50 ([1]; Mus musculus, Table 3, B16F10 cells, IFNγ-induced, thiochromanes (X = S) and chromane comparators (X = O), read-out: pSTAT1 EC50) | Thiochromane x-fold>potency cellular ([1]; Table 3, pSTAT1 EC50 of chromane comparator over thiochromane) | Thiochromane x-fold>potency biochemical ([3]; Table 3, PTPN2 MSA IC50 of chromane comparator over thiochromane)
CC(C)(CO)CCN[C@@H]1CSc2cc(O)c(N3CC(=O)NS3(=O)=O)c(F)c2C1 [Compound 106, 5-{(3S)-5-fluoro-7-hydroxy-3-[(4-hydroxy-3,3-dimethylbutyl)amino]-3,4-dihydro-2H-1-benzothiopyran-6-yl}-1λ^6,2,5-thiadiazolidine-1,1,3-trione] | 11900 nM | 10 to 100 nM | < 10 nM | – | – | –
CCCN[C@@H]1CSc2cc(O)c(N3CC(=O)NS3(=O)=O)c(F)c2C1 [Compound 107, 5-[(3S)-5-fluoro-7-hydroxy-3-(propylamino)-3,4-dihydro-2H-1-benzothiopyran-6-yl]-1λ^6,2,5-thiadiazolidine-1,1,3-trione] | 3960 nM | 10 to 100 nM | 10 to 100 nM | – | – | –
O=C1CN(c2c(O)cc3c(c2F)C[C@H](NCC2(CF)CC2)CS3)S(=O)(=O)N1 [Compound 128, 5-[(3S)-5-fluoro-3-({[1-(fluoromethyl)cyclopropyl]methyl}amino)-7-hydroxy-3,4-dihydro-2H-1-benzothiopyran-6-yl]-1λ^6,2,5-thiadiazolidine-1,1,3-trione] | 25700 nM | 10 to 100 nM | 10 to 100 nM | 25700 nM | >1.9 | 1.2
O=C1CN(c2c(O)cc3c(c2F)C[C@H](NCCC2CCCC2)CS3)S(=O)(=O)N1 [Compound 120, 5-{(3S)-3-[(2-cyclopentylethyl)amino]-5-fluoro-7-hydroxy-3,4-dihydro-2H-1-benzothiopyran-6-yl}-1λ^6,2,5-thiadiazolidine-1,1,3-trione] | 1010 nM | < 10 nM | < 10 nM | – | – | –
O=C1CN(c2c(O)cc3c(c2F)C[C@H](NCCCn2cccn2)CS3)S(=O)(=O)N1 [Compound 131, 5-[(3S)-5-fluoro-7-hydroxy-3-{[3-(1H-pyrazol-1-yl)propyl]amino}-3,4-dihydro-2H-1-benzothiopyran-6-yl]-1λ^6,2,5-thiadiazolidine-1,1,3-trione] | > 50000 nM | > 100 nM | 10 to 100 nM | – | – | –
CC1(CN[C@@H]2CSc3cc(O)c(N4CC(=O)NS4(=O)=O)c(F)c3C2)COC1 [Compound 127, 5-[(3S)-5-fluoro-7-hydroxy-3-{[(3-methyloxetan-3-yl)methyl]amino}-3,4-dihydro-2H-1-benzothiopyran-6-yl]-1λ^6,2,5-thiadiazolidine-1,1,3-trione] | 8970 nM | 10 to 100 nM | 10 to 100 nM | – | – | –
COCCCN[C@@H]1CSc2cc(O)c(N3CC(=O)NS3(=O)=O)c(F)c2C1 [Compound 130, 5-{(3S)-5-fluoro-7-hydroxy-3-[(3-methoxypropyl)amino]-3,4-dihydro-2H-1-benzothiopyran-6-yl}-1λ^6,2,5-thiadiazolidine-1,1,3-trione] | 4110 nM | 10 to 100 nM | 10 to 100 nM | – | – | –
O=C1CN(c2c(O)cc3c(c2F)C[C@H](NCC2CC2)CS3)S(=O)(=O)N1 [Compound 111, 5-{(3S)-3-[(cyclopropylmethyl)amino]-5-fluoro-7-hydroxy-3,4-dihydro-2H-1-benzothiopyran-6-yl}-1λ^6,2,5-thiadiazolidine-1,1,3-trione] | 7980 nM | 10 to 100 nM | 10 to 100 nM | – | – | –
O=C1CN(c2c(O)cc3c(c2F)C[C@H](NCCC2(CO)CCCC2)CS3)S(=O)(=O)N1 [Compound 105, 5-[(3S)-5-fluoro-7-hydroxy-3-({2-[1-(hydroxymethyl)cyclopentyl]ethyl}amino)-3,4-dihydro-2H-1-benzothiopyran-6-yl]-1λ^6,2,5-thiadiazolidine-1,1,3-trione] | 4810 nM | 10 to 100 nM | < 10 nM | – | – | –
CC(C)C(C)CN[C@@H]1CSc2cc(O)c(N3CC(=O)NS3(=O)=O)c(F)c2C1 (stereo partly drawn) [Compound 115, 5-{(3S)-3-[(2,3-dimethylbutyl)amino]-5-fluoro-7-hydroxy-3,4-dihydro-2H-1-benzothiopyran-6-yl}-1λ^6,2,5-thiadiazolidine-1,1,3-trione] | 1830 nM | < 10 nM | < 10 nM | – | – | –
O=C1CN(c2c(O)cc3c(c2F)C[C@H](NCCC2(CO)CCC2)CS3)S(=O)(=O)N1 [Compound 104, 5-[(3S)-5-fluoro-7-hydroxy-3-({2-[1-(hydroxymethyl)cyclobutyl]ethyl}amino)-3,4-dihydro-2H-1-benzothiopyran-6-yl]-1λ^6,2,5-thiadiazolidine-1,1,3-trione] | 3350 nM | 10 to 100 nM | < 10 nM | – | – | –
